Numbers after ± are expanded uncertainties.
Legend:
[1] = Liquid; for mass density: 293.15 K, 101.33 kPa, Vibrating tube method; for Normal boiling temperature: Closed cell (Static) method
[2] = refractive index (Na D-line) (dimensionless); settings: 298.15 K; 101.33 kPa; Liquid; Standard Abbe refractometry

SMILES | mass density [1] | Normal boiling temperature [1] | refractive index [2]
O [water] | 999.9 ± 0.24 kg/m3 | 100.1 ± 1 °C | 1.33244 ± 0.00033
CC(=O)O [acetic acid] | 1044.3 ± 0.96 kg/m3 | 117.1 ± 1.1 °C | 1.37104 ± 0.00052
CCCCCCC(=O)OCC [ethyl heptanoate] | 881.3 ± 0.74 kg/m3 | 187.2 ± 1.1 °C | 1.41123 ± 0.00052
O=CO [formic acid] | 1218.5 ± 1.4 kg/m3 | 101.1 ± 1.1 °C | 1.3721 ± 0.00052

From the NIST ThermoML archive (doi:10.1016/j.fluid.2013.07.015)
